Measured values as given in patent US6596728B1, “Substituted 1,3-diaryl-2-pyrid-2-yl-3-(pyrid-2-ylamino)propanol derivatives, process for their preparation, pharmaceuticals comprising these compounds and their use” (Aventis Pharma Deutschland GmbH, priority 1998, dated 2003).

Target: T1, intestinal bile acid transportation system (Na+-dependent) in brush border membrane vesicles of the ileum (Oryctolagus cuniculus, UniProt Q28727)
T1 construct: Preparation of Brush Border Membrane Vesicles from the Ileum of Rabbits; from tissue; host or cells: brush border membrane vesicles from terminal ileum of male New Zealand rabbits
T1 sequence (Q28727 1-347): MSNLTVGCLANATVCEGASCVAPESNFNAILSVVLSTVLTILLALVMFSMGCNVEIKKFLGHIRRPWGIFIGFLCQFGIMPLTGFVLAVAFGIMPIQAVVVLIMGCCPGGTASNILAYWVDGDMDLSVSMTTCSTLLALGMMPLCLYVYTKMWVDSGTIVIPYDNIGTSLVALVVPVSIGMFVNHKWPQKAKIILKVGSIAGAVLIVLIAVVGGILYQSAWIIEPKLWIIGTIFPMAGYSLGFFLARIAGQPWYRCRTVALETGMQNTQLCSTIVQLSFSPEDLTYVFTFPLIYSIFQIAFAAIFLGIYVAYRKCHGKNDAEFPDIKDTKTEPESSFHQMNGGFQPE
Experiment: Inhibition of Na+-dependent [3H]-taurocholate uptake in brush border membrane vesicles of the ileum of rabbits
Type: biochemical
Conditions: quotient of the IC50Na of the reference substance taurochenodeoxycholate (TCDC) and of the test substance, 50 μM taurocholate, rabbit ileum vesicles
Experimental: Biological testing of the compounds according to the present invention was carried out by determining the inhibition of [^3H]-taurocholate uptake in brush border membrane vesicles of the ileum of rabbits. The inhibition test was carried out as follows:
1. Preparation of Brush Border Membrane Vesicles from the Ileum of Rabbits
Brush border membrane vesicles from the intestinal cells of the small intestine were prepared by the so-called Mg^2+ precipitation method. Male New Zealand rabbits (2 to 2.5 kg body weight) were sacrificed by intravenous injection of 0.5 ml T61®, an aqueous solution of 2.5 mg tetracaine HCl, […] embutramide and 25 mg mebezonium iodide. The small intestine was removed and rinsed with ice-cold physiological saline solution. The terminal 7/10 of the small intestine (measured in the oral-rectal direction, i.e., the terminal ileum, which contains the active Na^+-dependent bile acid transportation system) was used for preparation of the brush border membrane vesicles. The intestines were frozen in plastic bags under nitrogen at −80° C. For preparation of the membrane vesicles, the frozen intestines were thawed at 30° C. in a water bath. The mucosa was scraped off and suspended in 60 ml of ice-cold 12 mM TRIS/HCl buffer (pH 7.1)/300 mM mannitol, 5 mM EGTA/10 mg/l of phenylmethylsulfonyl fluoride/1 mg/l of trypsin inhibitor from soybeans (32 U/mg)/0.5 mg/l of trypsin inhibitor from bovine lung (193 U/mg)/5 mg/l of bacitracin. After dilution to 300 ml with ice-cold distilled water, the mixture was homogenized with an Ultraturrax (18-rod, IKA Werk Staufen, Germany) for 3 minutes at 75% of the maximum output by cooling with ice. After addition of 3 ml of 1 M MgCl2 solution (final concentration 10 mM), the mixture was allowed to stand for exactly 1 minute at 0° C. The cell membranes aggregate by addition of Mg^2+ and precipitate, with the exception of the brush border membranes. After centrifugation at 3000×g (5000 rpm, SS-34 rotor) for 15 minutes, the precipitate was discarded land the supernatant, which contains the brush border membranes, was centrifuged at 48000×g (20000 rpm, SS-34 rotor) for 30 minutes. The supernatant was discarded, and the precipitate was rehomogenized in 60 ml of 12 mM TRIS/HCl buffer (pH 7.1)/60 mM mannitol, 5 mM EGTA with a Potter Elvejhem homogenizer (Braun, Melsungen, 900 rpm, 10 strokes). After addition of 0.1 ml of 1 M MgCl2 solution and incubation for 15 minutes at 0° C., centrifugation was again carried out at 3000×g for 15 minutes. The supernatant was then centrifuged again at 48000×x g (20000 rpm, SS-34 rotor) for 30 minutes. The precipitate was taken up in 30 ml of 10 mM TRIS/HEPES buffer (pH 7.4)/300 mM mannitol and resuspended homogeneously by 20 strokes in a Potter Elvejhem homogenizer at 1000 rpm. After centrifugation at 48000×g (20000 rpm, SS-34 rotor) for 30 minutes, the precipitate was taken up in 0.5 to 2 ml of TRIS/HEPES buffer (pH 7.4)/280 mM mannitol (final concentration 20 mg/ml) and resuspended with the aid of a Tuberculin syringe with a 27-gauge needle. The vesicles were either used for transportation investigations directly after preparation or stored at −196° C. in 4 mg portions in liquid nitrogen.
2. Inhibition of the Na^+-dependent [^3H]taurocholate Uptake in Brush Border Membrane Vesicles of the Ileum
The uptake of substrates in the brush border membrane vesicles described above was determined by means of the so-called membrane filtration technique. 10 μl of the vesicle suspension (100 μg of protein) were pipetted as drops onto the wall of a polystyrene incubation tube (11×70 mm) which contained the incubation medium with the corresponding ligands (90 μl). […]

| SMILES | IC50Na-TCDC (μmol) / IC50Na-compound (μmol) |
| --- | --- |
| N[C@@H](Cc1ccccc1)C(=O)N1CCC[C@H]1C(=O)Nc1ccccc1[C@@H](Nc1ccccn1)[C@H](c1ccccn1)[C@H](O)c1ccccc1 [Example 2c] | 1.06 |
| O=C(Cc1ccc(Cl)cc1)Nc1ccccc1[C@@H](Nc1ccccn1)[C@H](c1ccccn1)[C@H](O)c1ccccc1 [Example 33] | 0.52 |
| COc1ccc(CCC(=O)Nc2ccccc2[C@@H](Nc2ccccn2)[C@H](c2ccccn2)[C@H](O)c2ccccc2)cc1OC [Example 35] | 0.36 |
| O=C(CCC(=O)c1ccc(Cl)cc1)Nc1ccccc1[C@@H](Nc1ccccn1)[C@H](c1ccccn1)[C@H](O)c1ccccc1 [Example 36] | 0.36 |
| O=C(Cc1ccccc1C(F)(F)F)Nc1ccccc1[C@@H](Nc1ccccn1)[C@H](c1ccccn1)[C@H](O)c1ccccc1 [Example 38] | 0.38 |
| O=C(COc1ccc(F)cc1)Nc1ccccc1[C@@H](Nc1ccccn1)[C@H](c1ccccn1)[C@H](O)c1ccccc1 [Example 44] | 1.05 |
| Cc1ccccc1OCC(=O)Nc1ccccc1[C@@H](Nc1ccccn1)[C@H](c1ccccn1)[C@H](O)c1ccccc1 [Example 45] | 1.03 |
| O=C(CN1C(=O)c2ccccc2C1=O)Nc1ccccc1[C@@H](Nc1ccccn1)[C@H](c1ccccn1)[C@H](O)c1ccccc1 [Example 47] | 1.00 |
| COc1cc(/C=C/C(=O)Nc2ccccc2[C@@H](Nc2ccccn2)[C@H](c2ccccn2)[C@H](O)c2ccccc2)ccc1O [Example 52] | 1.11 |
| O=C(/C=C/c1cccs1)Nc1ccccc1[C@@H](Nc1ccccn1)[C@H](c1ccccn1)[C@H](O)c1ccccc1 [Example 53] | 0.46 |
| O=C(CSc1ncccn1)Nc1ccccc1[C@@H](Nc1ccccn1)[C@H](c1ccccn1)[C@H](O)c1ccccc1 [Example 56] | 1.15 |
| Cc1ccnc(SCC(=O)Nc2ccccc2[C@@H](Nc2ccccn2)[C@H](c2ccccn2)[C@H](O)c2ccccc2)n1 [Example 61] | 0.66 |
| O=C(CNC(=O)OCc1ccccc1)Nc1ccccc1[C@@H](Nc1ccccn1)[C@H](c1ccccn1)[C@H](O)c1ccccc1 [Example 64] | 0.39 |
| O=S(=O)(Nc1ccccc1C(Nc1ccccn1)C(c1ccccn1)C(O)c1ccccc1)c1cc(C(F)(F)F)cc(C(F)(F)F)c1 (centres unmarked) [Example 78] | 0.27 |
| Cc1c(C)c(S(=O)(=O)Nc2ccccc2C(Nc2ccccn2)C(c2ccccn2)C(O)c2ccccc2)c(C)c2c1OC(C)(C)CC2 (centres unmarked) [Example 83] | 0.24 |
| CN(C)c1cccc2c(S(=O)(=O)Nc3ccccc3C(Nc3ccccn3)C(c3ccccn3)C(O)c3ccccc3)cccc12 (centres unmarked) [Example 89] | 0.90 |

The remaining lines, values ahead:

| IC50Na-TCDC (μmol) / IC50Na-compound (μmol) | SMILES |
| --- | --- |
| 1.13 | C#CCCC(=O)Nc1ccccc1[C@@H](Nc1ccccn1)[C@H](c1ccccn1)[C@H](O)c1ccccc1 [Example 31] |
| 0.81 | O=C(Cc1cccs1)Nc1ccccc1[C@@H](Nc1ccccn1)[C@H](c1ccccn1)[C@H](O)c1ccccc1 [Example 34] |
| 0.61 | O=C(Cc1ccsc1)Nc1ccccc1[C@@H](Nc1ccccn1)[C@H](c1ccccn1)[C@H](O)c1ccccc1 [Example 41] |
| 0.86 | CN(CC(=O)Nc1ccccc1[C@@H](Nc1ccccn1)[C@H](c1ccccn1)[C@H](O)c1ccccc1)C(=O)OC(C)(C)C [Example 49] |
| 0.67 | CCOCC(=O)Nc1ccccc1[C@@H](Nc1ccccn1)[C@H](c1ccccn1)[C@H](O)c1ccccc1 [Example 50] |
| 0.79 | CCOC(=O)/C=C/C(=O)Nc1ccccc1[C@@H](Nc1ccccn1)[C@H](c1ccccn1)[C@H](O)c1ccccc1 [Example 57] |
| 0.62 | CCCCCC#CC(=O)Nc1ccccc1[C@@H](Nc1ccccn1)[C@H](c1ccccn1)[C@H](O)c1ccccc1 [Example 60] |
| 0.99 | N#CC1(C(=O)Nc2ccccc2[C@@H](Nc2ccccn2)[C@H](c2ccccn2)[C@H](O)c2ccccc2)CC1 [Example 62] |
| 0.84 | O=[N+]([O-])c1ccccc1S(=O)(=O)Nc1ccccc1C(Nc1ccccn1)C(c1ccccn1)C(O)c1ccccc1 (centres unmarked) [Example 65] |
| 0.93 | CC(C)(C)c1ccc(S(=O)(=O)Nc2ccccc2C(Nc2ccccn2)C(c2ccccn2)C(O)c2ccccc2)cc1 (centres unmarked) [Example 66] |
| 1.00 | CC1(C)[C@@H]2CCC1(CS(=O)(=O)Nc1ccccc1C(Nc1ccccn1)C(c1ccccn1)C(O)c1ccccc1)C(=O)C2 (some centres unmarked) [Example 69] |
| 0.92 | O=S(=O)(Nc1ccccc1C(Nc1ccccn1)C(c1ccccn1)C(O)c1ccccc1)c1ccc(F)cc1 (centres unmarked) [Example 73] |
| 0.70 | O=S(=O)(Nc1ccccc1C(Nc1ccccn1)C(c1ccccn1)C(O)c1ccccc1)c1cc(Cl)cc(Cl)c1O (centres unmarked) [Example 74] |
| 0.22 | CC(C)S(=O)(=O)Nc1ccccc1C(Nc1ccccn1)C(c1ccccn1)C(O)c1ccccc1 (centres unmarked) [Example 77] |
| 0.79 | O=S(=O)(Nc1ccccc1C(Nc1ccccn1)C(c1ccccn1)C(O)c1ccccc1)c1ccc(Cl)s1 (centres unmarked) [Example 82] |
| 0.84 | CCCCOc1ccc(S(=O)(=O)Nc2ccccc2C(Nc2ccccn2)C(c2ccccn2)C(O)c2ccccc2)cc1 (centres unmarked) [Example 87] |
| 0.92 | O=C(O)c1ccc(S(=O)(=O)Nc2ccccc2C(Nc2ccccn2)C(c2ccccn2)C(O)c2ccccc2)cc1 (centres unmarked) [Example 91] |
| 1.10 | CC(=O)Nc1nc(C)c(S(=O)(=O)Nc2ccccc2C(Nc2ccccn2)C(c2ccccn2)C(O)c2ccccc2)s1 (centres unmarked) [Example 93] |
| 0.40 | CS(=O)(=O)c1ccc(S(=O)(=O)Nc2ccccc2C(Nc2ccccn2)C(c2ccccn2)C(O)c2ccccc2)cc1 (centres unmarked) [Example 94] |
